Target: F508del-CFTR (Homo sapiens, UniProt P13569, DEL508-508)
Test: SILAC heavy pulse light-chase assay: ER CFTR folding efficiency in CFBE41o- cells
Assay type: cell-based
Details: 2.5-hour chase; 2 μM IDOR-3, 2 μM IDOR-4, 10 μM TEZ, 10 μM ELX, TEZ + ELX 10 μM each
Protocol: Stable isotope labeling using amino acids in cell culture (SILAC technology, Thermo Fisher Scientific) was used. For pulse-chase assays to determine CFTR folding efficiency at the ER, CFBE-F508del-CFTR or CFBE-WT-CFTR were seeded at 100,000 cells per well into a FNC-coated 24-well plate in CFBE growth medium and, the next day, incubated for 24 hours with “SILAC light medium” [arginine- and lysine-free RPMI 1640 #A33823, 84 mg/liter light L-arginine, # 89989, 146 mg/liter light L-lysine, #88429 and 20 mg/liter L-proline, # 89989 (to prevent a potential arginine-proline conversion)] supplemented with 10% dialyzed FBS. Cells were then washed once in PBS (37°C) and incubated for 1 hour with “starvation medium” (arginine-, lysine-free RPMI 1640, and 1% HSA) containing the indicated fixed concentrations of correctors. A 30-min metabolic pulse labeling was then performed by replacing the medium with “SILAC heavy medium” [arginine- and lysine-free RPMI 1640, L-proline (20 mg/liter), heavy L-arginine (84 mg/liter; ^13C6^15N4, #89990), heavy L-lysine (146 mg/liter; ^13C6^15N2, #88209), and 1% HSA] containing correctors. Cells were then washed with PBS and chased in SILAC light medium supplemented with 1% HSA and correctors. This medium was kept for 1, 2.5, 4, and 6 h of chase time followed by cell lysis in RIPA buffer as described above. […]

F508del-CFTR, sequence (P13569 with tags, fused parts or gaps DEL508-508): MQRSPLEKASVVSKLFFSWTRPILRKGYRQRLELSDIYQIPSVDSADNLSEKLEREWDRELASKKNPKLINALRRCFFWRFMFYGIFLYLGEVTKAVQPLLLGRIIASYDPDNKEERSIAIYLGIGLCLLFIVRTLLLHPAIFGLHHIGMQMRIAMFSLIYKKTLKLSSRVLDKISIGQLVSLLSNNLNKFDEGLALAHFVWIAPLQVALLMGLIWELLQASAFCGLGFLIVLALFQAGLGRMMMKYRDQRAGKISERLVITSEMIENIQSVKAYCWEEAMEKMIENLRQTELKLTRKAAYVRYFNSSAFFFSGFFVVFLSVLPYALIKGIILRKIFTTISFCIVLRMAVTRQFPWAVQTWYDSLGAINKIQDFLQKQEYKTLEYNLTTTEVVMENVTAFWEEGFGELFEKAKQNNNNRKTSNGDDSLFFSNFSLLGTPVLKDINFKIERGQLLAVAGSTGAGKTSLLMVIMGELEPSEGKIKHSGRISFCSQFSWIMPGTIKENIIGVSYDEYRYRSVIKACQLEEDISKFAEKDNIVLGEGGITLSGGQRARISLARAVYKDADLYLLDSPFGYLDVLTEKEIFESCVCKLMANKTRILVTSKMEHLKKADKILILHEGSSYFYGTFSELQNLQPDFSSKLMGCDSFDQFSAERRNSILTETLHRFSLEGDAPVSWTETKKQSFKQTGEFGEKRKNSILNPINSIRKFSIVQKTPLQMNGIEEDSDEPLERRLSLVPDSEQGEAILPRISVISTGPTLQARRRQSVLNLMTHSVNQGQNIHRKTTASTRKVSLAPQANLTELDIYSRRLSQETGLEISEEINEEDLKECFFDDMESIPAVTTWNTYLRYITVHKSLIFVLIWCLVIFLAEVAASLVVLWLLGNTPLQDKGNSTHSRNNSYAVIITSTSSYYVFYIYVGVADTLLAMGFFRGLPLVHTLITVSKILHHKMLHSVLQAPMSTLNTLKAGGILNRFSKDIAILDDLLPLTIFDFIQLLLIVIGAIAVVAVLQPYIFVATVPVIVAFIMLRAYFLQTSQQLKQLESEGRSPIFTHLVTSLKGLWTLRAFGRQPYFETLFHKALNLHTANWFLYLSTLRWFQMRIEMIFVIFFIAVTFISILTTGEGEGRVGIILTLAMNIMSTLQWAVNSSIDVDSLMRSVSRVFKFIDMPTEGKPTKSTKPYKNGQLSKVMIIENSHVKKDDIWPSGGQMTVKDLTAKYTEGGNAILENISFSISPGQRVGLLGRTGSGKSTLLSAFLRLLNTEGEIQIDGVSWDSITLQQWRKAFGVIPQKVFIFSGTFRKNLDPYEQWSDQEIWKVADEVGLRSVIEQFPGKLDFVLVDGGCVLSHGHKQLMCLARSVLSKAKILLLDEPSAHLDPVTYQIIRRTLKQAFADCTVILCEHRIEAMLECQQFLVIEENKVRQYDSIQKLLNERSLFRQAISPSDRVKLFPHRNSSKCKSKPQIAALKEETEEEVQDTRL

Q: For `Cc1nn(C)cc1S(=O)(=O)NC(=O)c1ccc(-n2ccc(OCC(C)(C)C(F)(F)F)n2)nc1N1C[C@@H](C)CC1(C)C` [ELX, elexacaftor], which “B-to-C conversion rate (folding efficiency)” value is on record?
A: 6.7%

Q: With `CC(C)(CO)c1cc2cc(NC(=O)C3(c4ccc5c(c4)OC(F)(F)O5)CC3)c(F)cc2n1C[C@@H](O)CO` [TEZ, tezacaftor] as the compound, how does the “B-to-C conversion rate (folding efficiency)” value read?
A: 2.4%

Source: article PMC11801377, “A uniquely efficacious type of CFTR corrector with complementary mode of action” (Science Advances, 2024)
